Columns and labels:
Type in all cases: biochemical
HDAC 1 = HDAC 1 (Homo sapiens, UniProt Q13547); experiment: enzymatic inhibition of HDAC 1; settings: HDAC 1, Class I
Excerpt: (§1) The mammalian HDACs can be divided into four classes depending on their sequence homology, sub-cellular distribution and catalytic activity. Class I, Il and IV HDACs have a Zn^2+ cofactor in the catalytic site. Class III HDACs contain sirtuins 1-7 and are NAD^+-dependent. Class I (HDACs 1, 2, 3 and 8) share the same homology as Rpd3 and are preliminarily distributed in the nucleus of normal cells. Class II HDACs can be subdivided into class IIa HDACs and class Ilb HDACs. Class IIa enzymes (HDAC 4, 5, 7 and 9) shuttle between the nucleus and cytoplasm and are located in specific tissues such as the brain, heart, and muscle. Class IIb (HDACs 6 and 10) are chiefly located in the cytoplasm.

HDAC 2 = HDAC 2 (Homo sapiens, UniProt Q92769); experiment: enzymatic inhibition of HDAC 2; settings: HDAC 2, Class I
Excerpt: as §1

HDAC 3 = HDAC 3 (Homo sapiens, UniProt O15379); experiment: enzymatic inhibition of HDAC 3; settings: HDAC 3, Class I
Excerpt: as §1

HDAC 8 = HDAC 8 (Homo sapiens, UniProt Q9BY41); experiment: enzymatic inhibition of HDAC 8; settings: HDAC 8, Class I; read-out: IC50
Excerpt: as §1

HDAC 4 = HDAC 4 (Homo sapiens, UniProt P56524); experiment: enzymatic inhibition of HDAC 4; settings: HDAC 4, Class IIa; read-out: IC50
Excerpt: as §1

HDAC 5 = HDAC 5 (Homo sapiens, UniProt Q9UQL6); experiment: enzymatic inhibition of HDAC 5; settings: HDAC 5, Class IIa; read-out: IC50
Excerpt: as §1

HDAC 7 = HDAC 7 (Homo sapiens, UniProt Q8WUI4); experiment: enzymatic inhibition of HDAC 7; settings: HDAC 7, Class IIa; read-out: IC50
Excerpt: as §1

HDAC 9 = HDAC 9 (Homo sapiens, UniProt Q9UKV0); experiment: enzymatic inhibition of HDAC 9; settings: HDAC 9, Class IIa; read-out: IC50
Excerpt: as §1

HDAC 6 = HDAC 6 (Homo sapiens, UniProt Q9UBN7); experiment: enzymatic inhibition of HDAC 6; settings: HDAC 6, Class IIb; read-out: IC50
Excerpt: as §1

HDAC 10 = HDAC 10 (Homo sapiens, UniProt Q969S8); experiment: enzymatic inhibition of HDAC 10; settings: HDAC 10, Class IIb
Excerpt: as §1

HDAC 11 = HDAC 11 (Homo sapiens, UniProt Q96DB2); experiment: enzymatic inhibition of HDAC 11; settings: HDAC 11, Class IV
Excerpt: as §1

Class I HDAC = experiment: enzymatic inhibition of Class I HDACs (summary); settings: in words
Excerpt: as §1

Chain of HDAC 6 (Q9UBN7 whole entry): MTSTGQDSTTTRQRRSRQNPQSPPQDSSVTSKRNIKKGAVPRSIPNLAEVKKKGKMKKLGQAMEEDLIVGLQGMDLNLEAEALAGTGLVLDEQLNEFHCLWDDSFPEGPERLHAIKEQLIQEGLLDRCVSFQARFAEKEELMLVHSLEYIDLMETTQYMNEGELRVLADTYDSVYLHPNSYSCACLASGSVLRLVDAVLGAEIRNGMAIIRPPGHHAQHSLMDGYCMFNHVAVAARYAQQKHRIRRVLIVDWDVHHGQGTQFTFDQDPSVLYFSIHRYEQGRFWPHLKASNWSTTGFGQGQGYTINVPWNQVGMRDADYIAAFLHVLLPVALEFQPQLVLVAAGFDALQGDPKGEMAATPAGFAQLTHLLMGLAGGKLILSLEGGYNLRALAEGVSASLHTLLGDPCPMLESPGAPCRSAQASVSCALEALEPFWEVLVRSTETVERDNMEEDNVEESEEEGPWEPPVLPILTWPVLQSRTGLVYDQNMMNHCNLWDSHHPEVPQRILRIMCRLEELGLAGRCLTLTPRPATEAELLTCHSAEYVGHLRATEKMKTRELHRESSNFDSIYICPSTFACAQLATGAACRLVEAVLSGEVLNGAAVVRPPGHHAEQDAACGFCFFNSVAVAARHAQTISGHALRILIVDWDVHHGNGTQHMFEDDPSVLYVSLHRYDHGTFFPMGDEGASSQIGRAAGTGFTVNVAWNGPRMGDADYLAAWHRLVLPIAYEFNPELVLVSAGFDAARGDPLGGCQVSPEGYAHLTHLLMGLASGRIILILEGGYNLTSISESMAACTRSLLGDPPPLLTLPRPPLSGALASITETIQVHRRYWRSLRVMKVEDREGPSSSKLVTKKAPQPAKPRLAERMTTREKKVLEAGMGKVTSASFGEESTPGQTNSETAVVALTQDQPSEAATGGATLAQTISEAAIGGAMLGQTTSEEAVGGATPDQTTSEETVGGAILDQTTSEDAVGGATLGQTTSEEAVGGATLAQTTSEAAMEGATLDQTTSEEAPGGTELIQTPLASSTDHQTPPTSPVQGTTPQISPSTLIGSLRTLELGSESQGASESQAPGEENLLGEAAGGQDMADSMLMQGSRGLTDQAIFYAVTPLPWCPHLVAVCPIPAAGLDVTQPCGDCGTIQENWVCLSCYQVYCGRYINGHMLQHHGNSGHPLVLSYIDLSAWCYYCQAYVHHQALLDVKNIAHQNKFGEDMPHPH
Chain of HDAC 4 (P56524 whole entry): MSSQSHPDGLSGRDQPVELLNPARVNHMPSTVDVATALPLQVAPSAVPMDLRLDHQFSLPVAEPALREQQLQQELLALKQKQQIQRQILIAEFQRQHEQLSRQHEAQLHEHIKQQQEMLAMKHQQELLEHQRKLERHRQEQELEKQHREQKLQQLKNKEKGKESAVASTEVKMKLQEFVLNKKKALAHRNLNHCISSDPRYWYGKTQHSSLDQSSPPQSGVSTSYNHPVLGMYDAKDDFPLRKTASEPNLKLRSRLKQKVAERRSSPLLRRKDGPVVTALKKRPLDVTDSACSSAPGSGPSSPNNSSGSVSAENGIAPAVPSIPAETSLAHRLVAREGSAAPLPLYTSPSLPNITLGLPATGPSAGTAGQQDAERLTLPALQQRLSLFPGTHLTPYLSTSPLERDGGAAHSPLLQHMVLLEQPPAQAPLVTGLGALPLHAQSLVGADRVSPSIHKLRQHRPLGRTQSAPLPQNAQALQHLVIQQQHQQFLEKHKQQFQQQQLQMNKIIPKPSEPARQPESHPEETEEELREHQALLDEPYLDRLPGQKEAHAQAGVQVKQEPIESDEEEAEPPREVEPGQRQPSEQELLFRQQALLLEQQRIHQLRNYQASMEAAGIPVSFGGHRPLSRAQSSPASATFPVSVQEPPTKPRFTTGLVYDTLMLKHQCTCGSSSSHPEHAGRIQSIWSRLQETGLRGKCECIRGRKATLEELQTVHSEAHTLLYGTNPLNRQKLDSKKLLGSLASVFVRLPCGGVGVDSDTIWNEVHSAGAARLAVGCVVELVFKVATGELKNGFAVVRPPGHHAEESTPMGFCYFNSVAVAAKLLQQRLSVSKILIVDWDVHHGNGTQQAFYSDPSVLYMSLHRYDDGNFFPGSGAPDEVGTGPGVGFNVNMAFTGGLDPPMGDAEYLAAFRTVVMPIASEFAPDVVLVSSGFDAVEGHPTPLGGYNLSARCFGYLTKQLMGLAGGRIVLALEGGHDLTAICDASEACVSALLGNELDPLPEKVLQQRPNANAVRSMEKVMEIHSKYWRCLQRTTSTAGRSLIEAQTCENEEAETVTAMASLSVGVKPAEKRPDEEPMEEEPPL
Chain of HDAC 3 (O15379 whole entry): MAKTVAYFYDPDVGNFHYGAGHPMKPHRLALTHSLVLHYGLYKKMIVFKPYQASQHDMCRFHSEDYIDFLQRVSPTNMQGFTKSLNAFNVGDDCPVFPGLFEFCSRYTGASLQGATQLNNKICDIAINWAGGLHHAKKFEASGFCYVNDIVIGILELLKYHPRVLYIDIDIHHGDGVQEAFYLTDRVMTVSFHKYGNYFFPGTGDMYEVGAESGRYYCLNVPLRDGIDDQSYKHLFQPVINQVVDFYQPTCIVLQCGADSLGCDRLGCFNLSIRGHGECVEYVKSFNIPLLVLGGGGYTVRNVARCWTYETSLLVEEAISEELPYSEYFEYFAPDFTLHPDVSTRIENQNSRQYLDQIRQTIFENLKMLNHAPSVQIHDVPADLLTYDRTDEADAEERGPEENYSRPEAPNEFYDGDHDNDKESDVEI
Chain of HDAC 3 (Q9Y618 395-489 partner limits assumed): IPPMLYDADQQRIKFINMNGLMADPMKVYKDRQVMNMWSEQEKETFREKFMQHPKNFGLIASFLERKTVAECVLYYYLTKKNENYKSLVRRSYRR
Chain of HDAC 9 (Q9UKV0 whole entry): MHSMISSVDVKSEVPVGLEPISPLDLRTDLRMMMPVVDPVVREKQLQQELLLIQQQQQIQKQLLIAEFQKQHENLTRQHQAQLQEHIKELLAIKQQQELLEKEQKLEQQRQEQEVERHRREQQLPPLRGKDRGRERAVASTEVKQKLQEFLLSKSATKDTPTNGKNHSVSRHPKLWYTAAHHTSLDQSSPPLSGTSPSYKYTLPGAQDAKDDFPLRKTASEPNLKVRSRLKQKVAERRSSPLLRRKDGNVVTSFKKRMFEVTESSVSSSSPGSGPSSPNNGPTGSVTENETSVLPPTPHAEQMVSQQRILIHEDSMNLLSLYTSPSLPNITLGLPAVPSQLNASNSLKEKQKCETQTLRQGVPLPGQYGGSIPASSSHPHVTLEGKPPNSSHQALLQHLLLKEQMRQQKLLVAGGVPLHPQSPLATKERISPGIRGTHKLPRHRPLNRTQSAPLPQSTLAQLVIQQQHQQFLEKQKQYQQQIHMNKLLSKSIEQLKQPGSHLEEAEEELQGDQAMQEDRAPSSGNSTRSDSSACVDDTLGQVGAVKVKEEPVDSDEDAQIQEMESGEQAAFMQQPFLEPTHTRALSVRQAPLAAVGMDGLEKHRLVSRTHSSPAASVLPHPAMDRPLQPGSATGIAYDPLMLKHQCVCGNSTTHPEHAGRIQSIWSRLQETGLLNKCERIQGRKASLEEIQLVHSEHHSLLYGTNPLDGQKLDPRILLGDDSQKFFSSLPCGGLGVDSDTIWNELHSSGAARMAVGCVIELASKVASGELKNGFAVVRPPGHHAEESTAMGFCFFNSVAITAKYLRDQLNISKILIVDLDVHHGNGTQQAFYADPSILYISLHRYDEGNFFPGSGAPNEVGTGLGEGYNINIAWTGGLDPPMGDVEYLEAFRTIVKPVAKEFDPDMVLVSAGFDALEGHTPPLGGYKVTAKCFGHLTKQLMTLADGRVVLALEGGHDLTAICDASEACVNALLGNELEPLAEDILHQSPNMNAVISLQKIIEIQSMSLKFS
Chain of HDAC 2 (Q92769 whole entry): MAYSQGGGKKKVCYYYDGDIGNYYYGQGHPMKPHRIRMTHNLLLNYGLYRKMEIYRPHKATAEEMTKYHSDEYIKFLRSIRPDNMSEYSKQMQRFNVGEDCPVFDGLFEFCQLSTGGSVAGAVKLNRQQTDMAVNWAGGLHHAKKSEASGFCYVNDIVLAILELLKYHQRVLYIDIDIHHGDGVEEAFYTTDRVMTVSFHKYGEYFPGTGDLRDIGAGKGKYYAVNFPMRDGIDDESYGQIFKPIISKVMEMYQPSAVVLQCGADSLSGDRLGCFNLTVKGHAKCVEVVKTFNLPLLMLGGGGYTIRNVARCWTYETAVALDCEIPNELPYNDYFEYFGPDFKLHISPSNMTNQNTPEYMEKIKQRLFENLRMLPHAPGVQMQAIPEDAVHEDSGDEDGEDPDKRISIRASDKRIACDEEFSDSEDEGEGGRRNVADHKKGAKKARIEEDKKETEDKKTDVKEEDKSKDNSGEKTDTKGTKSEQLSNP
Chain of HDAC 1 (Q13547 whole entry): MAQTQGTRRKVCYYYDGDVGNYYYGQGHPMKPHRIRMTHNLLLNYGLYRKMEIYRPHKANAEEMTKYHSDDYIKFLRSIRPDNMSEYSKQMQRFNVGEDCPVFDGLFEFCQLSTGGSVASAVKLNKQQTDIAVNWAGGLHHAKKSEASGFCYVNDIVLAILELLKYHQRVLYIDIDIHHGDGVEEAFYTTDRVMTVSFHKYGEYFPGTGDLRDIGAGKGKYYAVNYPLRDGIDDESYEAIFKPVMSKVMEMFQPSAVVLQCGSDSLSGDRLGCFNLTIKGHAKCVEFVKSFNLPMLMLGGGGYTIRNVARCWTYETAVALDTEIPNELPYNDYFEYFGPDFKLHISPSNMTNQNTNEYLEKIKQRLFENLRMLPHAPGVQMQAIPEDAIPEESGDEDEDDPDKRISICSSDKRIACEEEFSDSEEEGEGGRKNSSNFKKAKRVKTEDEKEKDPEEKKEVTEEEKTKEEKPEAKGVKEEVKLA

- IC50 (HDAC 1): 1.2 nM
- IC50 (HDAC 2): 2.4 nM
- IC50 (HDAC 3): 2 nM
- IC50 (HDAC 8): 49 nM
- IC50 (HDAC 4): > 1000 nM
- IC50 (HDAC 5): > 1000 nM
- IC50 (HDAC 7): > 1000 nM
- IC50 (HDAC 9): > 1000 nM
- IC50 (HDAC 6): 47 nM
- IC50 (HDAC 10): 2.8 nM
- IC50 (HDAC 11): 2.3 nM
SMILES: CC(C)[C@@H]1NC(=O)C(C)(C)NC(=O)c2csc(n2)CNC(=O)C[C@@H](/C=C/CCS)OC1=O [OKI-006]
- potency / selectivity for Class I HDAC (Class I HDAC): high potency for Class I HDAC inhibitors

Source: US20260355274A1 (Onkure, Inc., priority 2022, published 2026)
